Data from patent EP2951180B1, “2,6,7,8 SUBSTITUTED PURINES AS HDM2 INHIBITORS” (Merck Sharp & Dohme Corp., priority 2013, dated 2014).
pIC50: −log10 of the molar value.

These molecules were tested against T1, HDM2 (Homo sapiens, UniProt Q00987) (assay: HDM2 FRET assay (inhibition of binding of FITC labeled p53-pocket peptide to HDM2)). Conditions: 0.5 nM HDM2 (residues 17 to 125), 3nM peptide, two hour incubation at room temperature; read-out: FRET IC50.
T1 construct: Thioredoxin (N); made in house; host or cells: E. coli strain BL21(DE3)Rosetta
Text: Methods: An HDM2 FRET assay was developed to assess the compounds' inhibitory activity towards binding of p53 protein. […] Protein was purified using Ni-affinity chromatography, followed by size exclusion chromatography using Superdex 75 26/60 column. […] The HDM2 assay buffer contained 1x Phosphate Buffered Saline (Invitrogen, Cat#14190), 0.01% BSA (Jackson ImmunoResearch, Cat# 001-000-162), 0.01% Tween-20. In the 1X assay buffer recombinant HDM2 protein, peptide and Lumi4-Tb Cryptate-conjugate mouse anti-6xHis antibody (cisbio, Cat#Tb61HISTLB) were added and transferred to ProxiPlate PLUS (PerkinElmer, Cat#6008269), containing compounds so that final DMSO concentration is 0.1% . Final concentrations of reagents in the assay wells are 0.5 nM HDM2, 0.25nM anti HIS (Tb label) antibody and 3nM peptide. […] Ratio of em520/em495 was used to calculate %inhibition and to obtain IC50 with 4-parameter logistic equation.
IC50 DETERMINATIONS: Dose-response curves were plotted from the inhibition data, from 10 point serial dilutions of inhibitory compounds. Concentration of compound was plotted against em520/Cem495 ratio signal. To generate IC50 values, the dose-response curves were fitted to a standard sigmoidal curve and IC50 values were derived by nonlinear regression analysis.

T1 sequence (Q00987 17-125): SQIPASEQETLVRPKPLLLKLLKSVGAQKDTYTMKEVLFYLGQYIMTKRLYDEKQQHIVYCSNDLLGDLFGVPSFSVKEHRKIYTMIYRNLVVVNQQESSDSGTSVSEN

**Q.** `C[C@@H](Nc1nc([S+](C)[O-])nc2nc(N3CCOC[C@H]3c3ccccc3)n(C[C@H]3CC[C@H](C)CC3)c12)C1CCC1` (single isomer, unassigned) [Example 14.2] was tested. Which pIC50 did it give?
**A.** The pIC50 was 7.98.

**Q.** `C[C@@H](Nc1nc([S+](C)[O-])nc2nc(N3CCOC[C@H]3c3ccccc3)n(C[C@H]3CC[C@H](C)CC3)c12)C1CCC1` (single isomer, unassigned) [Example 14.3] was tested. Which pIC50 did it give?
**A.** The pIC50 was 7.24.

**Q.** `C[C@@H](Nc1nc(S(C)(=O)=O)nc2nc(N3CCCCC3c3ccccc3)n(C[C@H]3CC[C@H](C)CC3)c12)C1CCC1` (single isomer, unassigned) [Example 14.10] was tested. Which pIC50 did it give?
**A.** The pIC50 was 6.96.

**Q.** `C[C@H]1CC[C@H](Cn2c(N3CCCC4COCCC43)nc3nc(-c4noc(=O)[nH]4)nc(-c4cccc(Cl)c4)c32)CC1` (single isomer, unassigned) [Example 16.118, 3-{6-(3-chlorophenyl)-8-(hexahydro-2H-pyrano[4,3-b]pyridin-1(5H)-yl)-7-[(trans-4-methylcyclohexyl)methyl]-7H-purin-2-yl}-1,2,4-oxadiazol-5(4H)-one] was tested. Which pIC50 did it give?
**A.** Its pIC50 is 7.65.

Same assay, conditions: Table 11; read-out: FRET IC50

**Q.** `C[C@@H](Nc1nc(-c2noc(=O)[nH]2)nc2nc(N3CCOC4CCCC43)n(C[C@H]3CC[C@H](C)CC3)c12)C1CCC1` (single isomer, unassigned) [Example 11.131] was tested. Which pIC50 did it give?
**A.** Its pIC50 is 8.15.

**Q.** With `C[C@@H](Nc1nc(-c2noc(=O)[nH]2)nc2nc(N3CCOC4CCCC43)n(C[C@H]3CC[C@H](C)CC3)c12)C1CCC1` (single isomer, unassigned) [Example 11.133] as the molecule, how does the pIC50 read?
**A.** The pIC50 was 9.46.

**Q.** `C[C@@H](Nc1nc(-c2noc(=O)[nH]2)nc2nc(N3CCCC3c3ccccc3)n(C[C@H]3CC[C@H](C)CC3)c12)C1CCC1` (single isomer, unassigned) [Example 11.135] was tested. Which pIC50 did it give?
**A.** The pIC50 was 8.68.

**Q.** `C[C@@H](Nc1nc(-c2noc(=O)[nH]2)nc2nc(N3CCCC3c3ccccc3)n(C[C@H]3CC[C@H](C)CC3)c12)C1CCC1` (single isomer, unassigned) [Example 11.136] was tested. Which pIC50 did it give?
**A.** The pIC50 was 6.29.

**Q.** With `C[C@@H](Nc1nc(-c2n[nH]c(=O)o2)nc2nc(N3CCOC4CCCC43)n(C[C@H]3CC[C@H](C)CC3)c12)C1CCC1` (single isomer, unassigned) [Example 11.140] as the molecule, how does the pIC50 read?
**A.** Its pIC50 is 8.01.

**Q.** `C[C@@H](Nc1nc(-c2n[nH]c(=O)o2)nc2nc(N3CCOC4CCCC43)n(C[C@H]3CC[C@H](C)CC3)c12)C1CCC1` (single isomer, unassigned) [Example 11.141] was tested. Which pIC50 did it give?
**A.** Its pIC50 is 9.08.

**Q.** `C[C@@H](Nc1nc(-c2noc(=O)[nH]2)nc2nc(N3CCOC4CCCC43)n(C[C@H]3CC[C@H](C)CC3)c12)C1CCC1` (single isomer, unassigned) [Example 11.148] was tested. Which pIC50 did it give?
**A.** Its pIC50 is 7.62.

**Q.** With `C[C@@H](Nc1nc(-c2noc(=O)[nH]2)nc2nc(N3CCOC4CCCC43)n(C[C@H]3CC[C@H](C)CC3)c12)C1CCC1` (single isomer, unassigned) [Example 11.149] as the molecule, how does the pIC50 read?
**A.** Its pIC50 is 8.45.

**Q.** How did the pIC50 turn out when `COCC1COCCN1c1nc2nc(-c3noc(=O)[nH]3)nc(N[C@H](C)C3CCC3)c2n1C[C@H]1CC[C@H](C)CC1` (single isomer, unassigned) [Example 11.150] was run?
**A.** Its pIC50 is 8.17.

**Q.** With `COCC1COCCN1c1nc2nc(-c3noc(=O)[nH]3)nc(N[C@H](C)C3CCC3)c2n1C[C@H]1CC[C@H](C)CC1` (single isomer, unassigned) [Example 11.151] as the molecule, how does the pIC50 read?
**A.** The pIC50 was 7.68.

**Q.** How did the pIC50 turn out when `C[C@@H](Nc1nc(-c2noc(=O)[nH]2)nc2nc(N3CCCC3C[S+](C)[O-])n(C[C@H]3CC[C@H](C)CC3)c12)C1CCC1` (single isomer, unassigned) [Example 11.154] was run?
**A.** The pIC50 was 7.15.

**Q.** `C[C@@H](Nc1nc(-c2noc(=O)[nH]2)nc2nc(N3CCCC3C[S+](C)[O-])n(C[C@H]3CC[C@H](C)CC3)c12)C1CCC1` (single isomer, unassigned) [Example 11.155] was tested. Which pIC50 did it give?
**A.** Its pIC50 is 6.78.

**Q.** `C[C@@H](Nc1nc(-c2n[nH]c(=O)o2)nc2nc(N3CCO[C@H](C)[C@@H]3C)n(C[C@H]3CC[C@H](C)CC3)c12)C1CCC1` (single isomer, unassigned) [Example 11.157] was tested. Which pIC50 did it give?
**A.** The pIC50 was 7.33.

**Q.** `C[C@@H](Nc1nc(-c2n[nH]c(=O)o2)nc2nc(N3CCO[C@H](C)[C@@H]3C)n(C[C@H]3CC[C@H](C)CC3)c12)C1CCC1` (single isomer, unassigned) [Example 11.158] was tested. Which pIC50 did it give?
**A.** Its pIC50 is 7.89.

**Q.** `C[C@@H](Nc1nc(-c2n[nH]c(=O)o2)nc2nc(N3CCO[C@H]4CCCC[C@H]43)n(C[C@H]3CC[C@H](C)CC3)c12)C1CCC1` (single isomer, unassigned) [Example 11.161] was tested. Which pIC50 did it give?
**A.** Its pIC50 is 7.53.

**Q.** How did the pIC50 turn out when `C[C@@H](Nc1nc(-c2n[nH]c(=O)o2)nc2nc(N3CCO[C@H]4CCCC[C@H]43)n(C[C@H]3CC[C@H](C)CC3)c12)C1CCC1` (single isomer, unassigned) [Example 11.162] was run?
**A.** The pIC50 was 8.13.

Same assay, conditions: Table 18; read-out: FRET IC50

**Q.** With `CC([C@H]1CC[C@H](C)CC1)n1c(N2CCOC[C@H]2C)nc2nc(-c3noc(=O)[nH]3)nc(N[C@H](C)C3CCC3)c21` (single isomer, unassigned) [Example 18.12] as the molecule, how does the pIC50 read?
**A.** Its pIC50 is 8.55.

**Q.** How did the pIC50 turn out when `CC([C@H]1CC[C@H](C)CC1)n1c(N2CCOC[C@H]2C)nc2nc(-c3noc(=O)[nH]3)nc(N[C@H](C)C3CCC3)c21` (single isomer, unassigned) [Example 18.13] was run?
**A.** Its pIC50 is 8.64.

**Q.** With `CC([C@H]1CC[C@H](C)CC1)n1c(N2CCOC[C@H]2c2ccccc2)nc2nc(-c3n[nH]c(=O)o3)nc(-c3cncc(Cl)c3)c21` (single isomer, unassigned) [Example 18.14] as the molecule, how does the pIC50 read?
**A.** Its pIC50 is 9.21.

**Q.** `CC([C@H]1CC[C@H](C)CC1)n1c(N2CCOC[C@H]2C)nc2nc(-c3n[nH]c(=O)o3)nc(-c3cccc(Cl)c3)c21` (single isomer, unassigned) [Example 18.35] was tested. Which pIC50 did it give?
**A.** Its pIC50 is 8.30.

**Q.** With `CC([C@H]1CC[C@H](C)CC1)n1c(N2CCOC[C@H]2C)nc2nc(-c3n[nH]c(=O)o3)nc(-c3cccc(Cl)c3)c21` (single isomer, unassigned) [Example 18.36] as the molecule, how does the pIC50 read?
**A.** The pIC50 was 8.05.

**Q.** With `CC([C@H]1CC[C@H](C)CC1)n1c(N2CCC[C@H]2CF)nc2nc(-c3noc(=O)[nH]3)nc(-c3cncc(Cl)c3)c21` (single isomer, unassigned) [Example 18.45] as the molecule, how does the pIC50 read?
**A.** The pIC50 was 8.62.

**Q.** `CC([C@H]1CC[C@H](C)CC1)n1c(N2CCC[C@H]2CF)nc2nc(-c3noc(=O)[nH]3)nc(-c3cncc(Cl)c3)c21` (single isomer, unassigned) [Example 18.46] was tested. Which pIC50 did it give?
**A.** Its pIC50 is 8.26.

**Q.** With `CC([C@H]1CC[C@H](C)CC1)n1c(N2CCC[C@H]2CF)nc2nc(-c3n[nH]c(=O)o3)nc(-c3cncc(Cl)c3)c21` (single isomer, unassigned) [Example 18.47] as the molecule, how does the pIC50 read?
**A.** The pIC50 was 8.29.

**Q.** With `CC([C@H]1CC[C@H](C)CC1)n1c(N2CCC[C@H]2CF)nc2nc(-c3n[nH]c(=O)o3)nc(-c3cncc(Cl)c3)c21` (single isomer, unassigned) [Example 18.48] as the molecule, how does the pIC50 read?
**A.** The pIC50 was 8.09.

**Q.** How did the pIC50 turn out when `CC[C@@H]1COCCN1c1nc2nc(-c3noc(=O)[nH]3)nc(-c3cccc(Cl)c3)c2n1C(C)[C@H]1CC[C@H](C)CC1` (single isomer, unassigned) [Example 18.50] was run?
**A.** Its pIC50 is 8.15.

**Q.** How did the pIC50 turn out when `CC[C@@H]1COCCN1c1nc2nc(-c3noc(=O)[nH]3)nc(-c3cccc(Cl)c3)c2n1C(C)[C@H]1CC[C@H](C)CC1` (single isomer, unassigned) [Example 18.51] was run?
**A.** Its pIC50 is 7.98.

Same assay, conditions: Table 21; read-out: FRET IC50

**Q.** `C[C@@H](Nc1nc(C(=O)O)nc2nc(C3CCCCC3c3ccccc3)n(Cc3ccc(C(F)(F)F)cc3)c12)C1CCC1` (single isomer, unassigned) [Example 21.1] was tested. Which pIC50 did it give?
**A.** The pIC50 was 7.99.

**Q.** `C[C@@H](Nc1nc(C(=O)O)nc2nc(C3CCCCC3c3ccccc3)n(Cc3ccc(C(F)(F)F)cc3)c12)C1CCC1` (single isomer, unassigned) [Example 21.2] was tested. Which pIC50 did it give?
**A.** Its pIC50 is 8.63.

**Q.** How did the pIC50 turn out when `C[C@@H](Nc1nc(C(=O)O)nc2nc(C3CCCC3c3ccccc3)n(Cc3ccc(C(F)(F)F)cc3)c12)C1CCC1` (single isomer, unassigned) [Example 21.5] was run?
**A.** The pIC50 was 7.58.

**Q.** With `C[C@@H](Nc1nc(C(=O)O)nc2nc(C3CCCC3c3ccccc3)n(Cc3ccc(C(F)(F)F)cc3)c12)C1CCC1` (single isomer, unassigned) [Example 21.6] as the molecule, how does the pIC50 read?
**A.** The pIC50 was 8.87.

**Q.** `C[C@@H](Nc1nc(C(=O)O)nc2nc(C3COCC3c3ccccc3)n(Cc3ccc(C(F)(F)F)cc3)c12)C1CCC1` (single isomer, unassigned) [Example 21.7] was tested. Which pIC50 did it give?
**A.** Its pIC50 is 7.54.

**Q.** `C[C@@H](Nc1nc(C(=O)O)nc2nc(C3COCC3c3ccccc3)n(Cc3ccc(C(F)(F)F)cc3)c12)C1CCC1` (single isomer, unassigned) [Example 21.8] was tested. Which pIC50 did it give?
**A.** The pIC50 was 8.42.

**Q.** `CC(c1ccccc1)c1nc2nc(-c3noc(=O)[nH]3)nc(N[C@H](C)C3CCC3)c2n1C[C@H]1CC[C@H](C)CC1` (single isomer, unassigned) [Example 21.14] was tested. Which pIC50 did it give?
**A.** Its pIC50 is 7.70.

**Q.** How did the pIC50 turn out when `CC(c1ccccc1)c1nc2nc(-c3noc(=O)[nH]3)nc(N[C@H](C)C3CCC3)c2n1C[C@H]1CC[C@H](C)CC1` (single isomer, unassigned) [Example 21.15] was run?
**A.** The pIC50 was 8.69.

**Q.** `C[C@@H](Nc1nc(-c2noc(=O)[nH]2)nc2nc(C3CCCCC3c3ccccc3)n(C[C@H]3CC[C@H](C)CC3)c12)C1CCC1` (single isomer, unassigned) [Example 21.25] was tested. Which pIC50 did it give?
**A.** Its pIC50 is 7.54.

Same assay, conditions: read-out: % inh. at 1000 nM; at 1000 nM compound

**Q.** `C[C@@H](Nc1nc(S(C)(=O)=O)nc2nc(N3CCCCC3c3ccccc3)n(C[C@H]3CC[C@H](C)CC3)c12)C1CCC1` (single isomer, unassigned) [Example 14.9] was tested. Which inhibition at 1 µM did it give?
**A.** The inhibition at 1 µM was 46%.
